These results are taken from patent EP0199238A1, “1,4-Dihydropyridine derivatives, process for their preparation and their use in medicaments” (BAYER AG, priority 1985, dated 1986).

For the experiment, the system named is SH-Ratte. In words: Blood pressure measurement in conscious rats (tail cuff, oral administration). It counts as in vivo. To be noted: Rattus norvegicus, oral by gavage, lowest dose that still gives at least 15 mm Hg fall in systolic blood pressure, read-out: Grenzdosis der antihypertensiven Wirkung. Here is the method: Blutdruckmessung bei wachen Ratten
Meßmethode: In Anlehnung an das von Breuninger beschriebene Verfahren wird der Blutdruck am Schwanz der nicht narkotisierten Ratte unblutig mittels aufblasbarer Gummimanschette und Infraton-Pulsabnehmer D nach Boucke-Brecht gemessen. Die Tiere befinden sich während des ganzen Versuches, einschlieBlich einer 2-stündigen Vorperiode, einzeln in einem Wassermantel umgeben, auf ca. 30°C temperierten Kunststoffröhren. Die aufblasbare Gummimanschette sitzt an der Schwanzwurzel, der Pulsabnehmer 2-5 cm distal davon. Zur Erzielung gleichmäßiger Meßresultate ist für die wiederholten Messungen die Meßstelle am Schwanz mit Tusche markiert.
Der gesamte Meßvorgang wird auf einem 2-Kanal-Direktschreiber oder einem Speicher-Oszillografen (Tektronix) registriert, im 1. Kanal die Pulsationen der Schwanzarterie, im 2. Kanal die Impulse eines Druckmarkengebers, der den jeweils in der Manschette herrschenden Druck anzeigt. Gemessen wird bei abfallendem Manschettendruck. Als Meßwert wird der in der Manschette herrschende Druck bei Wiederauftreten der Pulsationen benutzt. Er entspricht dem systolischen Blutdruck im Rattenschwanz. […]
Bei der quantitativen Bestimmung von Dosis-Wirkungskurven wird für jedes Tier die Wirkung als mittlere prozentuale Blutdrucksenkung gegenüber dem Ausgangsblutdruck, gemittelt über den Versuchszeitraum von 6 Stunden, angegeben. […]

Turning to `COC(=O)C1=C(C)NC(C)=C(C(=O)OCC(C)(C)O)C1c1ccccc1[N+](=O)[O-]` (stereo not shown) [Beispiel 3, 1,4-Dihydro-2,6-dimethyl-4-(2-nitrophenyl)-pyridin-3,5-dicarbonsäure-(2-hydroxy-2-methyl-propyl)-methyl-ester], the minimal effective dose was 1 mg/kg.
